Assay: cuticle abrasion test
Details: for performance in cuticle abrasion test versus comparative Examples: base shampoo containing 0.03M of the compound; for % recovery: freeze-dried cuticle abraded from 4 g hair washed twice with base shampoo containing 0.03M of the compound, lower is better
Method: The compositions were tested in a cuticle abrasion test. Root end hair (as received from the supplier) was pre-cleaned by washing for 1 minute in Composition I followed by copious rinsing in double deionised water. The hair was left to dry naturally over 24 hrs.
For each test, 4 g of hair was washed in 0.4 g of the test composition for 30 seconds, rinsed for 30 seconds, and the washing/rinsing cycle repeated. The hair was left to dry naturally overnight.
The hair was cut into 1 cm lengths, placed in a blender bucket and 200 ml of double de-ionised water was added. The blender was placed on full power for 1 minute. The liquor was decanted off and transferred to a 50 ml centrifuge tube and centrifuged for 10 minutes at 4,300 RPM. The resulting clear liquor was decanted off leaving the cuticle sediment at the bottom of the tube.
The cuticle was transferred from the tube into a beaker with 3×5 ml washes and passed through a series of sieves (425 and 53 microns). The sieves were washed with a further 2×10 ml of water to ensure complete recovery of the cuticle. The sample was made up to 50 ml in a centrifuge tube, centrifuged for 15 minutes and the liquor decanted off. The cuticle was transferred with double deionised water (2×10 ml washes) to a beaker and freeze-dried.
The freeze-dried cuticle was weighed back to determine percentage recovery.

Row | SMILES | performance in cuticle abrasion test versus comparative Examples | % recovery [%]
1 | CC(C)(C)CCO [Compound 1, 3,3-dimethylbutan-1-ol] | perform better than comparative Examples A and B | 0.31
2 | CC(C)(C)C(O)CO (centres unmarked) [Compound 2, 3,3-dimethyl-1,2-butanediol] | perform better than comparative Examples A and B | 0.27
3 | CC(O)CC(C)(C)O (centres unmarked) [Compound B, 2-methyl-2,4 pentanediol, reference compound] |  | 0.50

From patent US20060165642A1, “Hair treatment compositions” (priority 2002, published 2006)
